According to ChEMBL document CHEMBL4052695, “Introduction of fluorine to phenyl group of 4-(2-pyrimidinylamino)benzamides leading to a series of potent hedgehog signaling pathway inhibitors” (Bioorg Med Chem Lett, 2017):

What was measured:
[1] = Inhibition of hedgehog signaling pathway in mouse NIH/3T3 cells carrying stably transfected Gli-reporter construct by luciferase reporter assay; type: cell-based; conditions: NIH3T3
Mus musculus = species on record: Mus musculus; assay: Potency index, ratio of IC50 for Vismodegib to IC50 for test compound for inhibition of hedgehog signaling pathway in mouse NIH/3T3 cells carrying stably transfected Gli-reporter construct by luciferase reporter assay; type: cell-based
[2] = Mean residence time (0 to t) in Sprague-Dawley rat at 1 mg/kg, iv formulated using 5% DMA + 5% Tween-80 measured during 2 mins to 24 hrs post dose by LC/MS/MS method; type: ADME, organism-based; conditions: in vivo
Rattus norvegicus [3] = assay: Apparent volume of distribution in Sprague-Dawley rat at 5 mg/kg, po formulated using 0.5% HPMC + 0.3% Tween-80 (pH = 2.8) measured during 2 mins to 24 hrs post dose by LC/MS/MS method; type: ADME, organism-based; conditions: in vivo, pH 2.8, 5 mg/kg
Rattus norvegicus [4] = assay: Apparent volume of distribution in Sprague-Dawley rat at 5 mg/kg, po formulated using 5% DMA + 5% Tween-80 measured during 2 mins to 24 hrs post dose by LC/MS/MS method; type: ADME, organism-based; conditions: in vivo
[5] = Cmax in Sprague-Dawley rat at 5 mg/kg, po formulated using 0.5% HPMC + 0.3% Tween-80 (pH = 2.8) measured during 2 mins to 24 hrs post dose by LC/MS/MS method; type: ADME, organism-based; set-up: dose 5 mg/kg, route oral; conditions: in vivo
[6] = Apparent volume of distribution in Sprague-Dawley rat at 1 mg/kg, iv formulated using 5% DMA + 5% Tween-80 measured during 2 mins to 24 hrs post dose by LC/MS/MS method; type: ADME, organism-based; conditions: in vivo, read-out: Vz
[7] = Mean residence time (0 to t) in Sprague-Dawley rat at 5 mg/kg, po formulated using 5% DMA + 5% Tween-80 measured during 2 mins to 24 hrs post dose by LC/MS/MS method; type: ADME, organism-based; conditions: in vivo
[8] = Half life in Sprague-Dawley rat at 5 mg/kg, po formulated using 5% DMA + 5% Tween-80 measured during 2 mins to 24 hrs post dose by LC/MS/MS method; type: ADME, organism-based; conditions: in vivo
[9] = Clearance in Sprague-Dawley rat at 1 mg/kg, iv formulated using 5% DMA + 5% Tween-80 measured during 2 mins to 24 hrs post dose by LC/MS/MS method; type: ADME, organism-based; conditions: in vivo
[10] = AUC (0 to t) in Sprague-Dawley rat at 1 mg/kg, iv formulated using 5% DMA + 5% Tween-80 measured during 2 mins to 24 hrs post dose by LC/MS/MS method; type: ADME, organism-based; set-up: dose 1 mg/kg, time 0.033-24 hr, route intravenous; conditions: in vivo
[11] = Half life in Sprague-Dawley rat at 5 mg/kg, po formulated using 0.5% HPMC + 0.3% Tween-80 (pH = 2.8) measured during 2 mins to 24 hrs post dose by LC/MS/MS method; type: ADME, organism-based; conditions: in vivo
[12] = Half life in Sprague-Dawley rat at 1 mg/kg, iv formulated using 5% DMA + 5% Tween-80 measured during 2 mins to 24 hrs post dose by LC/MS/MS method; type: ADME, organism-based; conditions: in vivo
[13] = Cmax in Sprague-Dawley rat at 1 mg/kg, iv formulated using 5% DMA + 5% Tween-80 measured during 2 mins to 24 hrs post dose by LC/MS/MS method; type: ADME, organism-based; set-up: dose 1 mg/kg, route intravenous; conditions: in vivo
[14] = Cmax in Sprague-Dawley rat at 5 mg/kg, po formulated using 5% DMA + 5% Tween-80 measured during 2 mins to 24 hrs post dose by LC/MS/MS method; type: ADME, organism-based; set-up: dose 5 mg/kg, route oral; conditions: in vivo
[15] = AUC (0 to t) in Sprague-Dawley rat at 5 mg/kg, po formulated using 0.5% HPMC + 0.3% Tween-80 (pH = 2.8) measured during 2 mins to 24 hrs post dose by LC/MS/MS method; type: ADME, organism-based; set-up: time 0.033-24 hr, dose 5 mg/kg, route oral; conditions: in vivo
[16] = Mean residence time (0 to t) in Sprague-Dawley rat at 5 mg/kg, po formulated using 0.5% HPMC + 0.3% Tween-80 (pH = 2.8) measured during 2 mins to 24 hrs post dose by LC/MS/MS method; type: ADME, organism-based; conditions: in vivo
[17] = Clearance in Sprague-Dawley rat at 5 mg/kg, po formulated using 5% DMA + 5% Tween-80 measured during 2 mins to 24 hrs post dose by LC/MS/MS method; type: ADME, organism-based; conditions: in vivo
[18] = AUC (0 to t) in Sprague-Dawley rat at 5 mg/kg, po formulated using 5% DMA + 5% Tween-80 measured during 2 mins to 24 hrs post dose by LC/MS/MS method; type: ADME, organism-based; set-up: time upper 24 hr, time lower 0.033 hr, dose 5 mg/kg, route oral; conditions: in vivo
[19] = Clearance in Sprague-Dawley rat at 5 mg/kg, po formulated using 0.5% HPMC + 0.3% Tween-80 (pH = 2.8) measured during 2 mins to 24 hrs post dose by LC/MS/MS method; type: ADME, organism-based; conditions: in vivo

| Compound | IC50 [1] | Ratio IC50 (Mus musculus) | also measured |
| --- | --- | --- | --- |
| Cc1ccc(CN2CCN(C)CC2)cc1NC(=O)c1ccc(Nc2ncc(F)c(-c3ccc(OC(F)(F)F)cc3)n2)c(F)c1 | 5.67 nM | – | – |
| CCN(CC)Cc1ccc(C)c(NC(=O)c2ccc(Nc3ncc(C)c(-c4ccc(OC(F)(F)F)cc4)n3)c(F)c2)c1 | 0.9 nM | > 8 | – |
| Cc1ccc(CN2CCCCC2)cc1NC(=O)c1ccc(Nc2ncc(C)c(-c3ccc(OC(F)(F)F)cc3)n2)c(F)c1 | 0.94 nM | > 8 | – |
| Cc1ccc(CN2CCCC2)cc1NC(=O)c1ccc(Nc2ncc(C)c(-c3ccc(OC(F)(F)F)cc3)n2)c(F)c1 | 2.03 nM | – | – |
| Cc1ccc(CN2CCOCC2)cc1NC(=O)c1ccc(Nc2ncc(C)c(-c3ccccc3)n2)c(F)c1 | 0.05 nM | 150 | – |
| Cc1ccc(CN2CCOCC2)cc1NC(=O)c1ccc(Nc2nccc(-c3cnn(C)c3)n2)c(F)c1 | 48.9 nM | – | – |
| Cc1ccc(CN2CCN(C)CC2)cc1NC(=O)c1ccc(Nc2ncc(C)c(-c3ccc(OC(F)(F)F)cc3)n2)c(F)c1 | 0.93 nM | > 8 | MRT last [2]: 7.93 h; Vz (Rattus norvegicus [3]): 69.4647 L/kg; Vz (Rattus norvegicus [4]): 71.6877 L/kg; Cmax [5]: 0.0571 µg/mL; Vd [6]: 37.4 L/kg; MRT last [7]: 10.7 h; half-life [8]: 14.9 h; clearance [9]: 1.93 L/h/kg; AUC(0-t) [10]: 0.383 µg·h/mL; half-life [11]: 11.7 h; half-life [12]: 13.5 h; Cmax [13]: 0.225 µg/mL; Cmax [14]: 0.0624 µg/mL; AUC(0-t) [15]: 0.882 µg·h/mL; MRT last [16]: 10.3 h; CL/F [17]: 3.34 L/h/kg; AUC(0-t) [18]: 0.956 µg·h/mL; CL/F [19]: 4.12 L/h/kg |
| Cc1ccc(CN2CCN(C)CC2)cc1NC(=O)c1ccc(Nc2ncc(F)c(-c3ccncc3)n2)c(F)c1 | 42.7 nM | – | – |
| Cc1ccc(CN2CCOCC2)cc1NC(=O)c1ccc(Nc2ncc(C)c(-c3ccc(OC(F)(F)F)cc3)n2)c(F)c1 | 0.5 nM | 14 | – |
| Cc1ccc(CN2CCN(C)CC2)cc1NC(=O)c1ccc(Nc2nccc(-c3cccnc3)n2)c(F)c1 | 7.2 nM | – | – |
| Cc1ccc(CN2CCOCC2)cc1NC(=O)c1ccc(Nc2ncc(C)c(-c3ccccn3)n2)c(F)c1 | 1.15 nM | – | – |
| Cc1ccc(OCCN2CCOCC2)cc1NC(=O)c1ccc(Nc2ncc(C)c(-c3ccc(OC(F)(F)F)cc3)n2)c(F)c1 | 0.71 nM | > 8 | – |
| Cc1ccc(CN(C)C)cc1NC(=O)c1ccc(Nc2ncc(C)c(-c3ccc(OC(F)(F)F)cc3)n2)c(F)c1 | 0.78 nM | > 8 | – |
| CS(=O)(=O)c1ccc(C(=O)Nc2ccc(Cl)c(-c3ccccn3)c2)c(Cl)c1 [VISMODEGIB] | 7.2 nM | – | – |
| Cc1ccc(OCCCN2CCOCC2)cc1NC(=O)c1ccc(Nc2ncc(C)c(-c3ccc(OC(F)(F)F)cc3)n2)c(F)c1 | 1.02 nM | – | – |
